{"source": "paper PMC7933930", "about": "“Development of a small molecule that corrects misfolding and increases secretion of Z α1‐antitrypsin” (EMBO Molecular Medicine, 2021)", "key": {"[1]": {"target": "PXR (human) (Homo sapiens, UniProt O75469)", "sequence (O75469 whole entry)": "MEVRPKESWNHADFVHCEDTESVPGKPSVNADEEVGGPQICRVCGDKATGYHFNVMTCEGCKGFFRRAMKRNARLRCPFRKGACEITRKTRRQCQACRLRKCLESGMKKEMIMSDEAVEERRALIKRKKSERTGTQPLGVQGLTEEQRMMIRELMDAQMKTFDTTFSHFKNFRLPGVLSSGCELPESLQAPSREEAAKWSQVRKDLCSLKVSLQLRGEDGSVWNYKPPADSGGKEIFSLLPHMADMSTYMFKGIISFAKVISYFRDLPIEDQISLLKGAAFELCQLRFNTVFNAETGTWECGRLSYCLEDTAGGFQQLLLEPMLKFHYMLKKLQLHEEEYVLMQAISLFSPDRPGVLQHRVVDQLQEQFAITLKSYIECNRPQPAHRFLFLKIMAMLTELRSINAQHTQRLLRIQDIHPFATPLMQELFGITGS", "experiment": "Off‐target panel: PXR (human)", "format": "cell-based", "details": "Activator, read-out: Mean (PXC50) (converted)", "procedure": "(§1) GSK716 selectivity and PK properties were profiled in order to investigate the suitability of GSK716 for progression into in vivo studies and the potential for taking it forward as a clinical candidate for testing in humans. Since GSK716 results in loss of inhibitory activity of α1‐antitrypsin, the effect of the compound was assessed on other closely related serpins. […] Furthermore, there were no off‐target effects in a panel of assays considered predictive of known safety liabilities that precluded further development of GSK716 (Table EV1)."}, "[2]": {"tested_on": "Z α1‐antitrypsin secretion in iPSC‐derived human hepatocytes (ZZ genotype)", "experiment": "Secretion of Z α1‐antitrypsin from ZZ iPSC‐derived human hepatocytes", "format": "cell-based", "details": "for EC50: Hepatocyte", "procedure": "The ability of GSK716 to block Z α1‐antitrypsin polymerisation in the ER during folding was assessed by adding GSK716 to CHO‐TET‐ON‐Z‐A1AT cells (Ordóñez et al, 2013) with simultaneous induction of Z α1‐antitrypsin expression using doxycycline. […] Similar potency between the effects on secretion and polymerisation was observed throughout members of the lead series supporting the hypothesis that these effects are caused by the same pharmacological mode of action.\nFigure 2 GSK716 inhibits polymerisation of Z α1‐antitrypsin in cell models of disease • A GSK716 was added to CHO‐TET‐ON‐Z‐A1AT cells (Ordóñez et al, 2013) with simultaneous induction of Z α1‐antitrypsin expression using doxycycline, and polymer load was quantified with the 2C1 monoclonal antibody that is specific to pathological polymers of α1‐antitrypsin (Miranda et al, 2010). […] Data were normalised to vehicle and a control compound from the GSK716 series at saturating concentration. […] It induced an approximately threefold increase in secreted levels of Z α1‐antitrypsin compared with vehicle control. […] For every time point, NP‐40‐soluble and NP‐40‐insoluble fractions were separated and immunoprecipitated with the 2C1 mAb and resolved by 4–12% w/v SDS–PAGE and α1‐antitrypsin detected by immunoblotting. […] Cell viability was measured by Cell Counting Kit‐8. […] Samples were resolved by 4–12% w/v acrylamide SDS–PAGE and detected by autoradiography. • H The graphs show the effect of GSK716 on intracellular and extracellular Z α1‐antitrypsin (mean ± SEM, n = 2).\nThe accumulation and clearance of Z α1‐antitrypsin polymer was measured with the 2C1 monoclonal antibody that is specific for polymerised antitrypsin in CHO‐TET‐ON‐Z‐α1AT cells (Ordóñez et al, 2013) and iPSC‐derived hepatocytes generated from a patient with a PiZZ genotype (Yusa et al, 2011). Secretion of Z α1‐antitrypsin was determined by TR‐FRET. Cell viability was analysed with Cell Counting Kit‐8 (Sigma) after treating the cells with 10 µM GSK716 or 0.1% v/v DMSO (vehicle) and an increasing concentration of tunicamycin (0.8–0.01 µg/ml)."}, "[3]": {"target": "T1, plasma‐purified wild‐type M α1‐antitrypsin (Homo sapiens, UniProt P01009)", "T1 construct": "purified from the plasma of M (wild‐type) and Z α1‐antitrypsin homozygotes; from tissue; host or cells: human plasma of M (wild-type) homozygotes", "T1 sequence (P01009 25-418)": "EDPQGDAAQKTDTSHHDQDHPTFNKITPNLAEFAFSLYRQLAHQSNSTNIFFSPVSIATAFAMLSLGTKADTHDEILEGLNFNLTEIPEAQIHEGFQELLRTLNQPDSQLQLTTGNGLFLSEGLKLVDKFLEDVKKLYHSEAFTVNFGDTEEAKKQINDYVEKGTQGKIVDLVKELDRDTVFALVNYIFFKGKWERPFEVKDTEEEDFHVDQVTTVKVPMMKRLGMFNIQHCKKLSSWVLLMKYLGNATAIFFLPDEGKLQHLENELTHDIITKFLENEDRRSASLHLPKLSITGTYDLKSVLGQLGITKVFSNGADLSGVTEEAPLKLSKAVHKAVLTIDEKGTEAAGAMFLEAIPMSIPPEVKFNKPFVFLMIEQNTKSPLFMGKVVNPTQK", "experiment": "Competition binding assay with Alexa488‐labelled analogue of GSK716, M α1‐antitrypsin", "description": "The shape of the curves and native mass spectrometry (not shown) are consistent with a single high‐affinity compound binding site. No binding of the fluorescent derivative to polymers of Z α1‐antitrypsin was observed, indicating conformational selectivity for the monomeric protein (Fig 1D). The rate of interaction of the compound with the target was monitored through changes in intrinsic tryptophan fluorescence (Dafforn et al, 1999); this property was used to determine the second‐order association rate constants for GSK716 binding to Z (4.1 × 10^4 M^−1 s^−1) and M α1‐antitrypsin (2.1 × 10^2 M^−1 s^−1; Fig 1E and F). […] Therefore, the selectivity of the compound for Z over M α1‐antitrypsin is dominated by the difference in the rate of association rather than dissociation.\nKinetic parameters of GSK716 binding to M, Z, S (Glu264Val) and Baghdad (Ala336Pro) (Haq et al, 2016) α1‐antitrypsin were measured by detecting intrinsic tryptophan fluorescence of the protein (excitation at 280 nm and detection of emission at 320 nm) on a stopped flow apparatus (Applied Photophysics) (Kim & Yu, 1996; Dafforn et al, 1999). […]"}, "[4]": {"target": "NMDA (NR2B) (Homo sapiens, UniProt Q05586+Q13224)", "sequence (Q13224 27-1484, species assumed, other chains not shown)": "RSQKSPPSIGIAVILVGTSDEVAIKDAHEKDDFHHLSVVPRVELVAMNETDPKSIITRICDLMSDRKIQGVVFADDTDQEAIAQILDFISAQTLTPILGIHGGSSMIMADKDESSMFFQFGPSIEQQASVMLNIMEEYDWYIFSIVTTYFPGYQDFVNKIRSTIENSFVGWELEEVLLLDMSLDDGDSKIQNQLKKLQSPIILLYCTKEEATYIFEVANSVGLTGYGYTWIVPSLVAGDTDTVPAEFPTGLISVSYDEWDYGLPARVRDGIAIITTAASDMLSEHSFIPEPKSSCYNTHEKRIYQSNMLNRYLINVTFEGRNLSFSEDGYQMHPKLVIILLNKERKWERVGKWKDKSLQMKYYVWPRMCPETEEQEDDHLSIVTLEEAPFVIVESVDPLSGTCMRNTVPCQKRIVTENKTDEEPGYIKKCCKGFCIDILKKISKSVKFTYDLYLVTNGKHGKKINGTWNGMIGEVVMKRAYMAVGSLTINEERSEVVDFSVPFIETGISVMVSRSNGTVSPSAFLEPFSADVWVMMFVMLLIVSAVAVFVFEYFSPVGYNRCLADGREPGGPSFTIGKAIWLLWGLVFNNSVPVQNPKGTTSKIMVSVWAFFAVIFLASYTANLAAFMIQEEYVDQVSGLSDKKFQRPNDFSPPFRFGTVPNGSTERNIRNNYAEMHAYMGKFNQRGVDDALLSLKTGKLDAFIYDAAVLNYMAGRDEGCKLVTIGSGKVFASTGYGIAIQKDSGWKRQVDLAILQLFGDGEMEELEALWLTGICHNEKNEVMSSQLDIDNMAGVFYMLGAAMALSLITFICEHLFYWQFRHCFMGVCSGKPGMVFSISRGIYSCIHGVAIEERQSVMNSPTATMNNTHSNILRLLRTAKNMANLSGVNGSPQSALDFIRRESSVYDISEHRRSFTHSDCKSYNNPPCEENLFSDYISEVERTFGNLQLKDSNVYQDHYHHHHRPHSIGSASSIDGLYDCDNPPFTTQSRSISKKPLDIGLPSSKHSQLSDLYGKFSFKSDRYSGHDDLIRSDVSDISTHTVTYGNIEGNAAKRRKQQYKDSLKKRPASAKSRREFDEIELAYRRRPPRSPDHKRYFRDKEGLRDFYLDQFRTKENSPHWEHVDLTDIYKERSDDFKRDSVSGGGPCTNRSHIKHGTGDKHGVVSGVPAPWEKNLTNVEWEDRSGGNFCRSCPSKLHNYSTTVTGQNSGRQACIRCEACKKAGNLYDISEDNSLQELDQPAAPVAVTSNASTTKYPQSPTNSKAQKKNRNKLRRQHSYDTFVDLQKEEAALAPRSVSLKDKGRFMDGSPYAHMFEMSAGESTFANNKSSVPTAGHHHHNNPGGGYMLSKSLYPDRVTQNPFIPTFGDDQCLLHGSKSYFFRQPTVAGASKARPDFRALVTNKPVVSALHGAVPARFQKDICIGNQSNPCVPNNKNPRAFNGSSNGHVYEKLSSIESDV", "experiment": "Off‐target panel: NMDA (NR2B)", "format": "cell-based", "procedure": "as §1"}, "[5]": {"target": "Adrenergic β2 (Homo sapiens, UniProt P07550)", "sequence (P07550 whole entry)": "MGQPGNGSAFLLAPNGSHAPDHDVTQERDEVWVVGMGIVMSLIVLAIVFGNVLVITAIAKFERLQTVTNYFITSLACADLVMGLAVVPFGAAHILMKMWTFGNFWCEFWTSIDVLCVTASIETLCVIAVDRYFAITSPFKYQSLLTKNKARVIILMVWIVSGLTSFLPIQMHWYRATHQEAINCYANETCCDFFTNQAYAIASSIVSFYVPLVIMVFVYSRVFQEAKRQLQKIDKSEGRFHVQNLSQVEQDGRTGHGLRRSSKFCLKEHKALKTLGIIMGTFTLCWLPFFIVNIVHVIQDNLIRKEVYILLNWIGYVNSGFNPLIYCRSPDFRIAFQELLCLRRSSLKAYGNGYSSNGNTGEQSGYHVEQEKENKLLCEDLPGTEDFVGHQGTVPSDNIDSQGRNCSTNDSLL", "experiment": "Off‐target panel: Adrenergic β2 (DRX)", "format": "cell-based", "details": "read-out: Mean (PXC50)", "procedure": "as §1"}}, "note": "Where two headings read alike, the source gives them in different places.", "data": [{"smiles": "CCC[C@@H](NC(=O)c1cccc2c1CC(=O)N2)[C@@H](O)c1cccc(F)c1C", "note": "[GSK716]", "values": [{"measurement": "EC50", "setting": "[1]", "result": 20, "unit": "µM"}, {"measurement": "EC50", "setting": "[2]; ZZ iPSC‐derived human hepatocytes, n = 14, read-out: mean pEC50, secretion (converted)", "result": 316, "unit": "nM"}, {"measurement": "EC50", "setting": "[2]; Homo sapiens, as quoted for the PK‐PD target concentration, cell system not stated there, read-out: cellular secretion assay EC50", "result": 300, "unit": "nM"}, {"measurement": "increase in secreted levels of Z α1‐antitrypsin compared with vehicle control", "setting": "[2]; ZZ iPSC‐derived human hepatocytes", "result": "approximately threefold"}, {"measurement": "selectivity: affinity for Z over M α1‐antitrypsin", "setting": "[3]", "result": 50, "unit": "fold"}, {"measurement": "Kd", "setting": "[3]; plasma‐purified wild‐type M α1‐antitrypsin, n = 10, mean ± SD, read-out: mean pKD (converted)", "result": 158, "unit": "nM"}, {"measurement": "IC50", "setting": "[4]", "result": "> 50.1", "unit": "µM"}, {"measurement": "EC50", "setting": "[5]; Agonist", "result": "> 100", "unit": "µM"}, {"measurement": "IC50", "setting": "[5]; Antagonist", "result": "> 100", "unit": "µM"}]}]}
